pKd: −log10 of the molar value. Read-outs that look alike come from different tables or passages of the source.
Tests used:
AR [1] = molecular target: T1, AR (Rattus norvegicus, UniProt P15207)
T1 sequence (P15207 1-902): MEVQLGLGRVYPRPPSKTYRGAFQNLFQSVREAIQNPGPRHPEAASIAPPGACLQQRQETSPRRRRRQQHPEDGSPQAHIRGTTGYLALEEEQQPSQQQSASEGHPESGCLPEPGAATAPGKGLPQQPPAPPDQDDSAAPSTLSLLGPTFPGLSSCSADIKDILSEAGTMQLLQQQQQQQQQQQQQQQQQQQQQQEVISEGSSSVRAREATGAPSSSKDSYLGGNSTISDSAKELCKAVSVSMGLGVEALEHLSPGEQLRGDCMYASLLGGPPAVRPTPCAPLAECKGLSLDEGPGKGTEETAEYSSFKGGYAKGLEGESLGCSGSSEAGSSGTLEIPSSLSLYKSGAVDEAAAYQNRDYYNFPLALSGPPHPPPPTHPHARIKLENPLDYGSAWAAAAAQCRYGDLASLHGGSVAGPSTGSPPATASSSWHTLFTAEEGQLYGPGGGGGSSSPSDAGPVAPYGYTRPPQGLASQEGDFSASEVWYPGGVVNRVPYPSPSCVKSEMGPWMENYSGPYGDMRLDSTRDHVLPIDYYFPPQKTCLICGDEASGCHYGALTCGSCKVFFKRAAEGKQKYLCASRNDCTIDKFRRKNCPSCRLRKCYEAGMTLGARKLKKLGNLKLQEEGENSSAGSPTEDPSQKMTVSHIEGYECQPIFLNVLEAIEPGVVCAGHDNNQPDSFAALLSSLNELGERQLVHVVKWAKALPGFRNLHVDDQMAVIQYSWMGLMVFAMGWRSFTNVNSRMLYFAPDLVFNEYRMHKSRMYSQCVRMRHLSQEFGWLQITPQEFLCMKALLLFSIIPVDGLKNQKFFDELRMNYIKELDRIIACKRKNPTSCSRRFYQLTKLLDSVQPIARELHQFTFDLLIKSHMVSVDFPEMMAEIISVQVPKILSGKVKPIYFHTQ

AR [2] = molecular target: T1, AR; conditions: castrated rats
From the text: The activity of compounds of the present invention as AR agonists was investigated in an immature male rat model, a recognized test of anabolic effects in muscle and sustaining effects in sex organs for a given compound, as described in L. G. Hershberger et al., Proc. Soc. […] Yak. Ken. Nem.
The basis of this assay lies in the well-defined action of androgenic agents on the maintenance and growth of muscle tissues and sexual accessory organs in animals and man. […] J. Anat. […] Ital. Biol. Sper. […] II. […] Ital. Biol. Sper. […] As described above, the effects of androgens on maintenance of male sexual accessory organs, such as the prostate and seminal vesicles, is well described. Castration results in rapid involution and atrophy of the prostate and seminal vesicles. This effect can be reversed by exogenous addition of androgens. Since both the levator ani muscle and the male sex organs are the tissues most responsive to the effects of androgenic agents, this model is used to determine the androgen dependent reversal of atrophy in the levator ani muscle and the sex accessory organs in immature castrated rats. Sexually mature rats (200-250 g, 6-8 weeks-old, Sprague-Dawley, Harlan) were acquired castrated from the vendor (Taconic). The rats were divided into groups and treated daily for 7 to 14 days with one of the following: • 1. Control vehicle • 2. […]

wild type AR = conditions: read-out: Kd for [^3H]-DHT; MDA 453 cells, saturation analysis, Scatchard
Description: For the saturation analysis, the difference between the total binding and the non-specific binding, was defined as specific binding.
Two replicates were used for each sample. After 4 hours at 37° C., cells were washed, harvested and counted as described above. […] The KI, values were determined by application of the Cheng-Prusoff equation to the IC50 values, where:
[formula] After correcting for non-specific binding, IC50 values were determined. […]

## CCC(=O)O[C@H]1CC[C@H]2[C@@H]3CCC4=CC(=O)CC[C@]4(C)[C@H]3CC[C@]12C [TP, testosterone propionate]
AR [1]; immature castrated rat model
  ED80: 0.1 mg
AR [1]; immature castrated rats, 3 days dosing
  EC50 (increase in organ weight): ~0.03 mg
AR [1]; organ weight increase, immature castrated rats
  higher potency than free T: 10-30 fold
AR [2]; 3 days dosing
  EC50 (increase in organ weight): ~0.03 mg
AR [2]; organ weight increase
  higher potency than free T: 10-30 fold

## tritiated dihydrotestosterone [[^3H]-DHT]
Wild type AR
  pKd: 9.15

Source: patent US7342034B2, “Fused heterocyclic compounds and analogs thereof, modulators of nuclear hormone receptor function” (Bristol-Myers Squibb Company, priority 2001, dated 2008)
